Test results published in ChEMBL document CHEMBL1201862, “PubChem BioAssay data set” (2004).
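Assay format: 96-well plates, 48-hour exposure. Here, GI50 denotes the concentration required for 50% inhibition of growth.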 The source made the active and inactive calls. No stated cut-off is given here; in the data, active = GI50 up to about 1.1 µM and inactive = higher.

Legend:
Experiment in all cases: NCI tumour cell line growth inhibition, 48 h
SNB-19 = test system: SNB-19
CCRF-CEM = test system: CCRF-CEM
KM12 = test system: KM12
UO-31 = test system: UO-31
HCT-15 = test system: HCT-15
NCI-H23 = test system: NCI-H23
M14 = test system: M14
NCI-H226 = test system: NCI-H226
HCT-116 = test system: HCT-116
HOP-62 = test system: HOP-62
TK-10 = test system: TK-10
K562 = test system: K562
RXF 393 = test system: RXF 393
ACHN = test system: ACHN
SW-620 = test system: SW-620
OVCAR-3 = test system: OVCAR-3
NCI-H460 = test system: NCI-H460
SF-539 = test system: SF-539

SMILES | GI50 (SNB-19) | GI50 (CCRF-CEM) | GI50 (KM12) | GI50 (UO-31) | GI50 (HCT-15) [µM] | GI50 (NCI-H23) | GI50 (M14) | GI50 (NCI-H226) | GI50 (HCT-116) | GI50 (HOP-62) | GI50 (TK-10) | GI50 (K562) | GI50 (RXF 393) | GI50 (ACHN) | GI50 (SW-620) | GI50 (OVCAR-3) | GI50 (NCI-H460) | GI50 (SF-539)
COC(=O)C(=O)C(C(=O)C=C(C)C)C(=O)C(=O)Nc1nc2ccc([N+](=O)[O-])cc2s1 (centres undefined) | > 100 µM (inactive) | 38.7 µM (inactive) | 98.9 µM (inactive) | 41.5 µM (inactive) | 50.6 | 24.9 µM (inactive) | 52 µM (inactive) | 46.1 µM (inactive) | 50 µM (inactive) | 38.4 µM (inactive) | 38.5 µM (inactive) | 46.2 µM (inactive) | 12.9 µM (inactive) | 33.3 µM (inactive) | > 100 µM (inactive) | 44.6 µM (inactive) | 72.8 µM (inactive) | 36.6 µM (inactive)
CC(C)c1cccc(C(C)C)c1/N=C(/N)C#N | > 100 µM (inactive) | 30.5 µM (inactive) | > 56 µM (inactive) | > 100 µM (inactive) | 37.2 | > 100 µM (inactive) | > 100 µM (inactive) | > 100 µM (inactive) | > 44.6 µM (inactive) | > 100 µM (inactive) | > 100 µM (inactive) | 25.4 µM (inactive) | 53.8 µM (inactive) | > 100 µM (inactive) | 22.1 µM (inactive) | > 100 µM (inactive) | > 44.9 µM (inactive) | 22.8 µM (inactive)
OCC(O)C(OC1OC(CO)C(O)C(O)C1O)c1nn(-c2ccccc2)c2nc3cc(Cl)ccc3nc12 (centres undefined) | > 100 µM (inactive) | > 100 µM (inactive) | > 100 µM (inactive) | > 100 µM (inactive) | > 100 | > 100 µM (inactive) | > 100 µM (inactive) | – | > 100 µM (inactive) | > 100 µM (inactive) | > 100 µM (inactive) | > 100 µM (inactive) | > 100 µM (inactive) | > 100 µM (inactive) | – | > 100 µM (inactive) | > 100 µM (inactive) | > 100 µM (inactive)
Nc1c(-c2ccc(Cl)cc2Cl)[n+]([O-])c2ccccc2[n+]1[O-] | > 100 µM (inactive) | > 100 µM (inactive) | > 100 µM (inactive) | > 100 µM (inactive) | > 100 | > 100 µM (inactive) | > 100 µM (inactive) | > 100 µM (inactive) | – | > 100 µM (inactive) | > 100 µM (inactive) | > 100 µM (inactive) | – | > 100 µM (inactive) | > 100 µM (inactive) | > 100 µM (inactive) | > 100 µM (inactive) | > 100 µM (inactive)
CC(=O)O[C@H]1C(N(C)C(=O)c2ccccc2)CC[C@]2(C)C3CC[C@@]4(C)C(CC(O)[C@@H]4C(C)N(C)C)[C@@H]3CCC12 (some centres undefined) | > 100 µM (inactive) | > 100 µM (inactive) | > 100 µM (inactive) | – | > 100 | > 100 µM (inactive) | > 100 µM (inactive) | > 100 µM (inactive) | > 100 µM (inactive) | > 100 µM (inactive) | > 100 µM (inactive) | > 100 µM (inactive) | – | > 100 µM (inactive) | > 100 µM (inactive) | > 100 µM (inactive) | > 100 µM (inactive) | > 100 µM (inactive)
FC(F)(F)c1cccc(/C=N/C23CC4CC(CC(C4)C2)C3)c1 | > 100 µM (inactive) | – | > 100 µM (inactive) | > 100 µM (inactive) | > 100 | > 100 µM (inactive) | > 100 µM (inactive) | > 100 µM (inactive) | > 100 µM (inactive) | > 100 µM (inactive) | > 100 µM (inactive) | > 100 µM (inactive) | > 100 µM (inactive) | > 100 µM (inactive) | > 100 µM (inactive) | > 100 µM (inactive) | > 100 µM (inactive) | > 100 µM (inactive)
COC(=O)C(CCC#N)(CCC#N)C(=O)OC | > 100 µM (inactive) | > 100 µM (inactive) | > 100 µM (inactive) | > 100 µM (inactive) | > 100 | > 100 µM (inactive) | > 100 µM (inactive) | > 100 µM (inactive) | > 100 µM (inactive) | > 100 µM (inactive) | – | > 100 µM (inactive) | – | > 100 µM (inactive) | > 100 µM (inactive) | > 100 µM (inactive) | > 100 µM (inactive) | > 100 µM (inactive)
Cc1ccc(S(=O)(=O)c2c(N)n(CCN(C)C)c3nc4ccccc4nc23)cc1 | > 100 µM (inactive) | 96.6 µM (inactive) | 45.1 µM (inactive) | > 100 µM (inactive) | > 100 | > 100 µM (inactive) | > 100 µM (inactive) | > 100 µM (inactive) | > 100 µM (inactive) | – | 99.8 µM (inactive) | > 100 µM (inactive) | – | > 100 µM (inactive) | – | > 100 µM (inactive) | > 100 µM (inactive) | > 100 µM (inactive)
CCOC(=O)c1sc2c(sc(=O)n2-c2ccccc2)c1O | > 100 µM (inactive) | 45 µM (inactive) | > 100 µM (inactive) | > 100 µM (inactive) | > 100 | 65.8 µM (inactive) | > 100 µM (inactive) | > 100 µM (inactive) | > 100 µM (inactive) | > 100 µM (inactive) | > 100 µM (inactive) | > 100 µM (inactive) | > 100 µM (inactive) | > 100 µM (inactive) | – | 88.7 µM (inactive) | > 100 µM (inactive) | > 100 µM (inactive)
O=C(CCN1CCC(CCO)CC1)Nc1ccc2c(c1)C(=O)c1ccc(NC(=O)CCN3CCC(CCO)CC3)cc1C2=O | 16.9 µM (inactive) | 4.22 µM (inactive) | 2.69 µM (inactive) | 34.4 µM (inactive) | 27.7 | 26.5 µM (inactive) | – | 4.86 µM (inactive) | 9.46 µM (inactive) | 17.3 µM (inactive) | 24.7 µM (inactive) | 8.05 µM (inactive) | 30.1 µM (inactive) | 41.9 µM (inactive) | 4.79 µM (inactive) | 5.53 µM (inactive) | 3.94 µM (inactive) | 6.28 µM (inactive)
O=C1/C(=C(\Nc2ccccc2)c2ccccc2)C=NN1c1ccccc1 | > 100 µM (inactive) | > 100 µM (inactive) | > 100 µM (inactive) | > 100 µM (inactive) | > 100 | 56.8 µM (inactive) | > 100 µM (inactive) | – | – | – | > 100 µM (inactive) | 72.8 µM (inactive) | 22.1 µM (inactive) | 61 µM (inactive) | > 100 µM (inactive) | – | 96.4 µM (inactive) | > 100 µM (inactive)
C=CCNC(=O)NCCCC(NC(C)=O)C(=O)NCc1ccccc1 (centres undefined) | > 100 µM (inactive) | > 100 µM (inactive) | > 100 µM (inactive) | > 100 µM (inactive) | > 100 | > 100 µM (inactive) | > 100 µM (inactive) | > 100 µM (inactive) | – | > 100 µM (inactive) | > 100 µM (inactive) | > 100 µM (inactive) | > 100 µM (inactive) | > 100 µM (inactive) | > 100 µM (inactive) | > 100 µM (inactive) | > 100 µM (inactive) | > 100 µM (inactive)
CNC(=O)OCc1nc(SC2CCCCO2)n(C)c1COC(=O)NC (centres undefined) | > 100 µM (inactive) | > 100 µM (inactive) | > 100 µM (inactive) | > 100 µM (inactive) | > 100 | > 100 µM (inactive) | > 100 µM (inactive) | > 100 µM (inactive) | > 100 µM (inactive) | > 100 µM (inactive) | – | > 100 µM (inactive) | > 100 µM (inactive) | – | > 100 µM (inactive) | > 100 µM (inactive) | > 100 µM (inactive) | > 100 µM (inactive)
CC(=O)Nc1ccc(/C=C/C(=O)c2sc(C(N)=S)nc2C)cc1 | – | 81.1 µM (inactive) | > 100 µM (inactive) | > 100 µM (inactive) | > 100 | > 100 µM (inactive) | – | > 100 µM (inactive) | – | > 100 µM (inactive) | > 100 µM (inactive) | > 100 µM (inactive) | > 100 µM (inactive) | – | > 100 µM (inactive) | > 100 µM (inactive) | > 100 µM (inactive) | > 100 µM (inactive)
CC(=O)OC1(C(C)=O)CC2(c3ccccc3)OC1(c1ccccc1)c1ccccc12 (centres undefined) | 7.73 µM (inactive) | – | 17.3 µM (inactive) | 12 µM (inactive) | 6.38 | 8.34 µM (inactive) | 14.4 µM (inactive) | 5.98 µM (inactive) | 7.78 µM (inactive) | 11.6 µM (inactive) | 17.6 µM (inactive) | – | 13 µM (inactive) | 16.6 µM (inactive) | 16.7 µM (inactive) | 11.4 µM (inactive) | 10.4 µM (inactive) | 32 µM (inactive)
O=C(O)[C@@H](NS(=O)(=O)c1ccc2ccccc2c1)c1ccccc1 | > 100 µM (inactive) | > 100 µM (inactive) | – | > 100 µM (inactive) | > 100 | > 100 µM (inactive) | > 100 µM (inactive) | – | – | – | – | > 100 µM (inactive) | > 100 µM (inactive) | > 100 µM (inactive) | – | – | > 100 µM (inactive) | > 100 µM (inactive)
CC(C)(CN1CCCCC1)C(=O)CC(SCCS(=O)(=O)O)c1ccc(Br)cc1 (centres undefined) | 2.34 µM (inactive) | – | 2 µM (inactive) | 1.47 µM (inactive) | 2.82 | 2.34 µM (inactive) | 1.59 µM (inactive) | 3.26 µM (inactive) | 1.67 µM (inactive) | 6.18 µM (inactive) | 2.56 µM (inactive) | 1.21 µM (inactive) | 1.41 µM (inactive) | 1.67 µM (inactive) | – | – | 2.14 µM (inactive) | 1.6 µM (inactive)
